Test results as given in the supplement of paper PMC10307832.

Tests used:
Test in all cases: relative viability (nuclei count vs DMSO), 5 days (fraction); higher = more cells survive
[1] = system: NCI-H2009
How it was run: (§1)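 For relative viability, nuclei counts in treated wells were divided by those in vehicle wells. Lung cancer cell lines had been pin-tool dosed in 1536-well plates the day after seeding and cultured for 5 days, then fixed and stained in one step (final 0.05% Triton X-100, 1% formaldehyde, 1 ug/ml Hoechst) and imaged at 4×. Doses were one drug alone or a fixed anchor-drug dose plus five library-drug doses (not always all listed) in √10 steps, and values are duplicate-plate medians.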

[2] = system: NCI-H322M
How it was run: as §1

[3] = system: PC-14
How it was run: as §1

[4] = system: SK-LU-1
How it was run: as §1

[5] = system: NCI-H1563
How it was run: as §1

[6] = system: NCI-H1734
How it was run: as §1

[7] = system: NCI-H2085
How it was run: as §1

[8] = system: HOP-62
How it was run: as §1

[9] = system: NCI-H2126
How it was run: as §1

[10] = system: NCI-H1993
How it was run: as §1

[11] = system: NCI-H647
How it was run: as §1

COc1cc2nccc(Oc3ccc(NC(=O)Nc4cc(C)on4)c(Cl)c3)c2cc1OC [Tivozanib] + COc1cc2c(Oc3ccc(NC(=O)C4(C(=O)Nc5ccc(F)cc5)CC4)cc3F)ccnc2cc1OCCCN1CCOCC1 [Foretinib] (partner 0.25 µM)
relative viability ([1]; first compound 0.005 µM): 1.2 | relative viability ([1]; first compound 0.01581 µM): 1.16 | relative viability ([1]; first compound 0.05 µM): 1.19 | relative viability ([1]; first compound 0.1581 µM): 1.19 | relative viability ([1]; first compound 0.5 µM): 1.13 | relative viability ([2]; first compound 0.005 µM): 0.843 | relative viability ([2]; first compound 0.01581 µM): 1.01 | relative viability ([2]; first compound 0.05 µM): 0.989 | relative viability ([2]; first compound 0.1581 µM): 0.926 | relative viability ([2]; first compound 0.5 µM): 0.969 | relative viability ([3]; first compound 0.005 µM): 0.911 | relative viability ([3]; first compound 0.01581 µM): 0.959 | relative viability ([3]; first compound 0.05 µM): 1.01 | relative viability ([3]; first compound 0.1581 µM): 1.09 | relative viability ([3]; first compound 0.5 µM): 0.904 | relative viability ([4]; first compound 0.005 µM): 0.794 | relative viability ([4]; first compound 0.01581 µM): 0.863 | relative viability ([4]; first compound 0.05 µM): 0.885 | relative viability ([4]; first compound 0.1581 µM): 0.762 | relative viability ([4]; first compound 0.5 µM): 0.829 | relative viability ([5]; first compound 0.005 µM): 0.853 | relative viability ([5]; first compound 0.01581 µM): 1.01 | relative viability ([5]; first compound 0.05 µM): 0.888 | relative viability ([5]; first compound 0.1581 µM): 0.847 | relative viability ([5]; first compound 0.5 µM): 0.867 | relative viability ([6]; first compound 0.005 µM): 0.88 | relative viability ([6]; first compound 0.01581 µM): 0.888 | relative viability ([6]; first compound 0.05 µM): 0.913 | relative viability ([6]; first compound 0.1581 µM): 0.823 | relative viability ([6]; first compound 0.5 µM): 0.863 | relative viability ([7]; first compound 0.005 µM): 0.883 | relative viability ([7]; first compound 0.01581 µM): 0.884 | relative viability ([7]; first compound 0.05 µM): 0.831 | relative viability ([7]; first compound 0.1581 µM): 1.02 | relative viability ([7]; first compound 0.5 µM): 1.01 | relative viability ([8]; first compound 0.005 µM): 1.18 | relative viability ([8]; first compound 0.01581 µM): 1.05 | relative viability ([8]; first compound 0.05 µM): 1.12 | relative viability ([8]; first compound 0.1581 µM): 1.11 | relative viability ([8]; first compound 0.5 µM): 1.06 | relative viability ([9]; first compound 0.005 µM): 1.24 | relative viability ([9]; first compound 0.01581 µM): 1.11 | relative viability ([9]; first compound 0.05 µM): 1.18 | relative viability ([9]; first compound 0.5 µM): 1.25 | relative viability ([10]; first compound 0.005 µM): 0.632 | relative viability ([10]; first compound 0.01581 µM): 0.712 | relative viability ([10]; first compound 0.05 µM): 0.757 | relative viability ([10]; first compound 0.1581 µM): 0.733 | relative viability ([10]; first compound 0.5 µM): 0.722 | relative viability ([11]; first compound 0.005 µM): 1.05 | relative viability ([11]; first compound 0.01581 µM): 1.28 | relative viability ([11]; first compound 0.05 µM): 1.26 | relative viability ([11]; first compound 0.1581 µM): 1.13 | relative viability ([11]; first compound 0.5 µM): 1.2
